From ChEMBL document CHEMBL5331077, “Combining pharmacophore models derived from DNA-encoded chemical libraries with structure-based exploration to predict Tankyrase 1 inhibitors” (Eur J Med Chem, 2023)

Molecular target: T1, Poly [ADP-ribose] polymerase tankyrase-1 (Homo sapiens, UniProt O95271)
T1 sequence (O95271 whole entry): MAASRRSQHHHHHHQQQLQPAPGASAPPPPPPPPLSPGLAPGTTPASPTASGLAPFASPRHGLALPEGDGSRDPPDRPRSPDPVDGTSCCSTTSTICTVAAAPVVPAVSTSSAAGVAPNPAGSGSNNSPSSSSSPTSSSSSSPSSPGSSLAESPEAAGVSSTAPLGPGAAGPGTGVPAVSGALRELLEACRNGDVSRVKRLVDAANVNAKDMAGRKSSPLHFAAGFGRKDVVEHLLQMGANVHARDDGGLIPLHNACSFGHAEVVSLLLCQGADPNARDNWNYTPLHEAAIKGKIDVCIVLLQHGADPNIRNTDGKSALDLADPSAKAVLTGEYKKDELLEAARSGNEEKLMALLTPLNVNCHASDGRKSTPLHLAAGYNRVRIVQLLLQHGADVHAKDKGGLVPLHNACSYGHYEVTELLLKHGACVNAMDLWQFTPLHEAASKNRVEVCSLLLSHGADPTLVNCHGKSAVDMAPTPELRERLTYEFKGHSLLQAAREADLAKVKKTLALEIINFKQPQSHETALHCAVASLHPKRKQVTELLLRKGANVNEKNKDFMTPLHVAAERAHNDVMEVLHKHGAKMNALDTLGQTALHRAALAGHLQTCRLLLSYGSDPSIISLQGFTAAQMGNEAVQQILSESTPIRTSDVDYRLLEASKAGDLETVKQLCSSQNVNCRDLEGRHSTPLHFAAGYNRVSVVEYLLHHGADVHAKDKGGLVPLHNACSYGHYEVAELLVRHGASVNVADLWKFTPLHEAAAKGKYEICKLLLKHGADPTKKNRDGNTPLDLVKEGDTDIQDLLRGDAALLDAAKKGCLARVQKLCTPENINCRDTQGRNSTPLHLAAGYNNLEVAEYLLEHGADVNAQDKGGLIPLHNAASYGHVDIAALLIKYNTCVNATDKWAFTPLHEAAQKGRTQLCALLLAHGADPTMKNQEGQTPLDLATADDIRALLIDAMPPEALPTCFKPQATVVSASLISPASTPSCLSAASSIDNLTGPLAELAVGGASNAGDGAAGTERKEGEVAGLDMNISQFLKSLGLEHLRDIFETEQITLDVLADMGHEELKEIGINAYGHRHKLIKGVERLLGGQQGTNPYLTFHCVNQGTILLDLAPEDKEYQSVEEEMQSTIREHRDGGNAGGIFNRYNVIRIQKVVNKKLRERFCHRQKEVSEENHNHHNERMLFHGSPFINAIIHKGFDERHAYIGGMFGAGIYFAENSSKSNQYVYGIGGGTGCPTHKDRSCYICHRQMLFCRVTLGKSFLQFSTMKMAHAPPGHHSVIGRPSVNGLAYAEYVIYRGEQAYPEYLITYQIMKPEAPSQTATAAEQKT
Test: Inhibition of TNKS1 (unknown origin) using biotinylated NAD as substrate preincubated for 30 mins followed by substrate addition and measured after 1 hr by BioTek synergy 2 microplate reader analysis

SMILES | IC50 [nM]
CNC(=O)[C@H](CNC(=O)CCn1c(=O)[nH]c(=O)c2ccccc21)NC(=O)c1cnc2ccccc2c1 | 0.8
Cc1cc(OCC(=O)NCCNC(=O)c2cccc(COc3ccccc3C(N)=O)c2)c2c3c(c(=O)oc2c1)CCC3 | 2
